Results reported in the supplement of paper PMC11061612.

What was measured:
Experiment in all cases: combination Emax (second highest fraction inhibited in the dose matrix, 72 h); higher = more inhibition; extreme values may be limits of the assay
[1] = test system: BFTC-905 (Bladder Carcinoma)
In short: (§1)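 Cell lines grown in DMEM/F12 or RPMI with 10% FBS were plated in 1536-well plates and held 24 hours at 37°C, 5% CO2 before 72 hours of exposure to two-drug dose matrices, with DMSO typically at 0.2%. CellTiter-Glo 2.0 luminescence gave viability, which was converted to inhibition. Vehicle wells were set to 0 and blank wells to 1. Combination Emax is the second-highest inhibition in the matrix, and Bliss excess is the observed combination effect minus the expected EA + EB − EA·EB, where EA and EB are the single-agent effects.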

[2] = test system: BL-41 (Burkitt's Lymphoma)
In short: as §1

CHP-212 (Neuroblastoma) = test system: CHP-212 (Neuroblastoma)
In short: as §1

ES8 (Ewing's Sarcoma) = test system: ES8 (Ewing's Sarcoma)
In short: as §1

[3] = test system: GR-ST (B-Lymphoblastic Leukemia)
In short: as §1

[4] = test system: HDQ-P1 (Breast Carcinoma)
In short: as §1

[5] = test system: HL-60 (Acute Myeloid Leukemia)
In short: as §1

[6] = test system: KARPAS-45 (T-Lymphoblastic Leukemia)
In short: as §1

[7] = test system: KCL-22 (Chronic Myelogenous Leukemia)
In short: as §1

[8] = test system: KM12 (Colorectal Carcinoma)
In short: as §1

[9] = test system: KYSE-180 (Esophageal Squamous Cell Carcinoma)
In short: as §1

[10] = test system: L-540 (Hodgkin's Lymphoma)
In short: as §1

LN-18 (Glioblastoma) = test system: LN-18 (Glioblastoma)
In short: as §1

MEL-JUSO (Melanoma) = test system: MEL-JUSO (Melanoma)
In short: as §1

[11] = test system: MS751 (Cervical Carcinoma)
In short: as §1

NCI-H2818 (Mesothelioma) = test system: NCI-H2818 (Mesothelioma)
In short: as §1

[12] = test system: PANC-08-13 (Pancreatic Carcinoma)
In short: as §1

[13] = test system: SR (Other Blood Carcinomas)
In short: as §1

[14] = test system: SU-DHL-8 (B-Cell Non-Hodgkin's Lymphoma)
In short: as §1

[15] = test system: SW1417 (Colorectal Carcinoma)
In short: as §1

Structure (SMILES)	combination Emax [1]	combination Emax [2]	combination Emax (CHP-212 (Neuroblastoma))	combination Emax (ES8 (Ewing's Sarcoma))	combination Emax [3]	combination Emax [4]	combination Emax [5]	combination Emax [6]	combination Emax [7]	combination Emax [8]	combination Emax [9]	combination Emax [10]	combination Emax (LN-18 (Glioblastoma))	combination Emax (MEL-JUSO (Melanoma))	combination Emax [11]	combination Emax (NCI-H2818 (Mesothelioma))	combination Emax [12]	combination Emax [13]	combination Emax [14]	combination Emax [15]
Cc1cc2ncnn2cc1Nc1ncc2c(n1)n(C1CCOCC1)c(=O)n2C [AZD7648] + CN(C)CCCOc1ccc(-c2ccc3ncc4c(c3c2)n(C2CCOCC2)c(=O)n4C)cn1 [AZD0156] (first compound max 10 µM, 7x7, partner max 1 µM)	0.221	0.269	0.288	0.408	0.489	0.403	0.416	0.234	0.332	0.241	0.168	0.366	0.17	0.169	0.275	0.368	0.223	0.377	0.125	0.326
NC1(C(=O)N[C@@H](CCO)c2ccc(Cl)cc2)CCN(c2ncnc3[nH]ccc23)CC1 [Capivasertib] + CC(=O)c1c(C)c2cnc(Nc3ccc(N4CCNCC4)cn3)nc2n(C2CCCC2)c1=O [Palbociclib] (first compound max 10 µM, 7x7, partner max 10 µM)	0.397	0.419	0.556	0.64	0.75	0.302	0.799	0.982	0.612	0.853	0.572	0.214	0.731	0.518	0.236	0.316	0.308	0.844	0.571	0.269
CC(=O)c1c(C)c2cnc(Nc3ccc(N4CCNCC4)cn3)nc2n(C2CCCC2)c1=O [Palbociclib] + Cn1cnc2c(F)c(Nc3ccc(Br)cc3Cl)c(C(=O)NOCCO)cc21 [Selumetinib] (first compound max 10 µM, 7x7, partner max 10 µM)	0.746	0.433	0.979	0.823	0.726	0.289	0.667	0.964	0.569	0.768	0.203	0.25	0.359	0.425	0.236	0.208	0.221	0.873	0.32	0.512
Cn1cnc2c(F)c(Nc3ccc(Br)cc3Cl)c(C(=O)NOCCO)cc21 [Selumetinib] + C[C@@H]1COCCN1C2=NC(=NC(=C2)C3(CC3)[S@](=N)(=O)C)C4=C5C=CNC5=NC=C4 [AZD6738] (first compound max 10 µM, 7x7, partner max 10 µM)	0.784	0.989	0.989	0.674	0.766	0.455	0.819	0.868	0.984	0.825	0.393	0.889	0.71	0.509	0.476	0.252	0.239	0.889	0.936	0.583
C[C@@H](c1ccc2nccn2c1)n1nnc2ncc(-c3cnn(C)c3)nc21 [Savolitinib] + Cc1c2c(nn1C)CSCc1cc(n(C)n1)CSc1cc(c3ccccc3c1)OCCCc1c(C(=O)O)n(C)c3c-2c(Cl)ccc13 [AZD5991] (first compound max 1 µM, 7x7, partner max 1 µM)	0.191	1	0.787	0.292	0.145	0.2	1	0.882	0.289	0.159	0.278	0.975	0.202	0.183	0.773	0.16	0.146	0.772	0.697	0.161
COc1cccc(OCCCN)c1-c1cc(Nc2cnc(C#N)cn2)n[nH]1 [Prexasertib] + O=C(c1cc(Cc2n[nH]c(=O)c3ccccc23)ccc1F)N1CCN(C(=O)C2CC2)CC1 [Olaparib] (first compound max 1 µM, 7x7, partner max 10 µM)	0.848	1	0.756	0.906	0.808	0.702	0.961	0.979	0.953	0.756	0.983	0.975	0.807	0.686	0.465	0.285	0.536	0.996	0.943	0.614
COc1cccc(OCCCN)c1-c1cc(Nc2cnc(C#N)cn2)n[nH]1 [Prexasertib] + CN(C)CCCOc1ccc(-c2ccc3ncc4c(c3c2)n(C2CCOCC2)c(=O)n4C)cn1 [AZD0156] (first compound max 1 µM, 7x7, partner max 1 µM)	0.888	1	0.782	0.837	0.822	0.538	0.956	0.971	1	0.775	0.983	0.968	0.752	0.751	0.378	0.282	0.467	1	0.964	0.619
COc1cccc(OCCCN)c1-c1cc(Nc2cnc(C#N)cn2)n[nH]1 [Prexasertib] + C[C@@H]1COCCN1C2=NC(=NC(=C2)C3(CC3)[S@](=N)(=O)C)C4=C5C=CNC5=NC=C4 [AZD6738] (first compound max 1 µM, 7x7, partner max 10 µM)	0.917	1	0.788	0.798	0.829	0.597	0.971	0.979	0.999	0.767	0.989	0.963	0.797	0.695	0.383	0.387	0.49	1	0.964	0.629
Cc1c2c(nn1C)CSCc1cc(n(C)n1)CSc1cc(c3ccccc3c1)OCCCc1c(C(=O)O)n(C)c3c-2c(Cl)ccc13 [AZD5991] + C[C@@H]1COCCN1C2=NC(=NC(=C2)C3(CC3)[S@](=N)(=O)C)C4=C5C=CNC5=NC=C4 [AZD6738] (first compound max 1 µM, 7x7, partner max 10 µM)	0.862	1	0.939	0.891	0.716	0.387	1	1	0.997	0.746	0.979	1	0.842	0.684	0.901	0.496	0.419	1	1	0.453
CN(CCO)CC[C@H](CSc1ccccc1)Nc1ccc(S(=O)(=O)NC(=O)c2ccc(N3CCC([C@@H](O)c4ccccc4-c4ccc(Cl)cc4)CC3)cc2)cc1S(=O)(=O)C(F)(F)F [AZD4320] + CN(C)CCCOc1ccc(-c2ccc3ncc4c(c3c2)n(C2CCOCC2)c(=O)n4C)cn1 [AZD0156] (first compound max 1 µM, 7x7, partner max 1 µM)	0.15	0.277	0.278	0.64	0.175	0.465	0.898	0.988	0.361	0.186	0.112	0.224	0.222	0.212	0.101	0.268	0.352	0.252	0.957	0.742
Cc1c2c(nn1C)CSCc1cc(n(C)n1)CSc1cc(c3ccccc3c1)OCCCc1c(C(=O)O)n(C)c3c-2c(Cl)ccc13 [AZD5991] + Cc1cc2ncnn2cc1Nc1ncc2c(n1)n(C1CCOCC1)c(=O)n2C [AZD7648] (first compound max 1 µM, 7x7, partner max 10 µM)	0.211	1	0.831	0.455	0.464	0.257	1	0.936	0.94	0.208	0.9	1	0.35	0.277	0.829	0.48	0.238	0.984	0.684	0.297
CC(=O)Nc1cccc(-n2c(=O)n(C3CC3)c(=O)c3c(Nc4ccc(I)cc4F)n(C)c(=O)c(C)c32)c1 [Trametinib] + Cc1nc(-c2cn3c(n2)-c2ccc(-c4cnn(C(C)(C)C(N)=O)c4)cc2OCC3)n(C(C)C)n1 [Taselisib] (first compound max 1 µM, 7x7, partner max 10 µM)	1	0.319	1	0.844	0.633	0.915	0.958	0.755	0.801	0.84	0.638	0.36	0.847	0.863	0.438	0.428	0.655	0.719	0	0.775
CCN(CCO)CCCOc1ccc2c(Nc3cc(CC(=O)Nc4cccc(F)c4)[nH]n3)ncnc2c1 [AZD2811] + C[C@@H]1COCCN1C2=NC(=NC(=C2)C3(CC3)[S@](=N)(=O)C)C4=C5C=CNC5=NC=C4 [AZD6738] (first compound max 1 µM, 7x7, partner max 10 µM)	0.838	1	0.791	1	0.732	0.391	0.899	0.948	0.986	0.612	0.823	0.921	0.585	0.357	0.492	0.405	0.36	0.968	0.918	0.341
